Results on three compounds are retold here after patent publication US9408820B2, “Broncholytic drug on the basis of prostaglandin” (OBSCHESTVO S OGRANICHENNOY OTVETSTVENNOST'YU “PROSTANIT …, priority 2012, dated 2016).

The test system of series [1] is healthy volunteers. Put plainly: inhalation in healthy volunteers, external respiratory function. Format: in vivo, human. The method, then:
(§1) The present invention solves the task of creating of bronchial dilating drug on the basis of 1′,3′-dinitroglycerol ester of 11(S),15(S)-dihydroxy-9-keto-5Z,13E-prostadienoic acid (nitroproston). This drug is any form of nitroproston suitable for introduction into the respiratory tract by inhalation, for example in the form of isotonic solution. […] Therapeutic index measured in rodents is greater than 15000.
(§2) The tests were carried out on healthy volunteers (average age 42.6±3.9 years) and patients with bronchial asthma in unstable remission state (average age 48.3±5.1 years). Nitroproston was introduced via inhalation in the form of a solution in the physiological solution in doses of 5 and 7.5 μg per inhalation. To a person skilled in the art will not meet a difficulty to prepare the solution for inhalation, knowing the dose of the active substance and the volume of the solution, which will be determined by technical features used in the specific context of the inhaler. […] External respiratory function was determined with the help of automatic spiroanalyzer (VI 8911, Estonia). […] So, change the maximum 25% volume exhalation velocity ranged from 10.4 to 32.2% as compared to the original values. Changes in peak volumetric velocity of exhalation in patients who have received 7.5 micrograms nitroproston per inhalation, are presented at the FIG. 1.

Series [2] relates to patients with bronchial asthma in unstable remission state. Put plainly: broncholytic activity by inhalation in patients with bronchial asthma. It counts as in vivo, human.
Excerpt: as §1
On the x-axis is the time after the introduction of the nitroproston, min; on the y-axis is the peak exhale velocity (l/min). The names of patients are abbreviated.
as §2

The test system of series [3] is guinea pig trachea. The settings on record: isolated guinea pig trachea; read-out: EC50, relaxation of the guinea pig trachea; cited from earlier work.
The test system of series [4] is individuals. The settings on record: in vivo; cited from earlier work.
For series [5], the system named is white outbred male mice. The series can be described thus: acute toxicity and therapeutic index in mice. It counts as in vivo. The settings on record: alcohol solution. Here is the method:
Experiments conducted on white outbred male mice (22±2 g weight). Nitroproston in the form of alcohol solution was injected intraperitoneal to the 10 mice in a maximum of 50 μl per dose of 215 mg/kg. The control group (10 animals) was injected with the same volume of pure ethyl alcohol. Animal health monitoring period was 14 days. Therapeutic index defined as the ratio of LD50 values (toxic dose) to the ED20 for change in blood pressure (pharmacological dose).

Series [6] relates to white outbred male mice. The series can be described thus: toxicity in repeated introduction in mice. It counts as in vivo. The settings on record: 50 and 500 μg/kg daily for 14 days. The method, then: Experiments conducted on white outbred male mice (22±2 g weight). Animals were divided into three groups of 10 animals each. Nitroproston (1% of alcoholic solution) was diluted with water and was injected in the volume 20 μl in two doses: 50 and 500 μg/kg. The control group was injected with equal volume of distilled water. The injections worked every day for 14 days. The animals were observed daily, measuring their weight, the intake of food and water. There have been observed no differences in the state and behavior of the animals between the control and experimental groups.

Consider `CC(Cc1ccc(O)cc1)NCC(O)c1cc(O)cc(O)c1` (stereo not drawn) [Berotec, reference compound], for which the “changes in the functions of the external respiration” value in series [1] was “did not cause significant changes”. The bronchospasm test result in series [2] (patients with bronchial asthma) is listed as “positive result”.
A word on the EC50: it is the midpoint of the concentration-response curve. As for `CCCCC[C@H](O)/C=C/[C@H]1[C@H](O)CC(=O)[C@@H]1C/C=C\CCCC(=O)O` [natural prostaglandin E2, prostaglandin E2, reference compound], in series [3], the EC50 is 140 ± 80 nM. Also, the “side effect in individuals” value in series [4] was “strong cough reflex”.
On to `CCCCC[C@H](O)/C=C/[C@H]1[C@@H](O)CC(=O)[C@@H]1C/C=C\CCCC(=O)OC(CO[N+](=O)[O-])CO[N+](=O)[O-]` [nitroproston, 1′,3′-dinitroglycerol ester of 11(S),15(S)-dihydroxy-9-keto-5Z,13E-prostadienoic acid], for which, in series [1], the “changes in the functions of the external respiration” value is “did not cause significant changes” and the cough bouts result was “no cough bouts”. For the same compound, in series [3], the EC50 is 7 nM. Also, in series [5] (215 mg/kg intraperitoneal, 14 days observation), the animal deaths result is reported as “animal deaths have not observed”. Further, the acute toxicity assessment entry in series [5] (intraperitoneal, mice) is “low-toxic compound”. Besides, the “toxic effects on repeated introduction” value in series [6] is given as “no toxic effects”. In series [2] (5 μg per inhalation), the “parameters of external breath” value is “improved slightly” and the side effects entry is recorded as “have not noticed any side effects”. Besides, the external respiration indices entry in series [2] (7.5 μg per inhalation) is given as “have been improved”. For the same compound, in series [2] (5-20 μg per inhalation), the “toxicity at therapeutic doses” value was “non-toxic”. Also, the “peak volumetric velocity of exhalation” value in series [2] (7.5 micrograms per inhalation, within 360 minutes (FIG. 1)) is listed as “strongest increase”. Further, in series [2] (inhalation solution), the “only side effect of the inhalation solution” value was “transient dry mouth”. Moreover, the “bronchial dilation and side effects” value in series [2] (isotonic solution, 7.5 micrograms per inhalation) was “prolonged dilation of bronchus without side effects”. Moreover, in series [2] (patients with asthma, inhalation), the cough bouts result is given as “no cough bouts”.
